Measurements as given in PubChem BioAssay (NCI).
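Protocol summary: plate cells (96-well), add compound at 5 concentrations, incubate 48 h, interpolate endpoints linearly. At the TGI there is no net growth.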

Assays:
Assay in all cases: inhibition of tumour cell growth, NCI panel, 48 h
HOP-62 NSCLC = test system: HOP-62 NSCLC
HCT-15 colon = test system: HCT-15 colon
LOX IMVI melanoma = test system: LOX IMVI melanoma
SK-MEL-28 melanoma = test system: SK-MEL-28 melanoma
SK-MEL-2 melanoma = test system: SK-MEL-2 melanoma
HCC-2998 colon = test system: HCC-2998 colon
IGROV1 ovarian = test system: IGROV1 ovarian
EKVX NSCLC = test system: EKVX NSCLC
A549 NSCLC = test system: A549 NSCLC
RXF 393 renal = test system: RXF 393 renal
SF-539 CNS = test system: SF-539 CNS
786-0 renal = test system: 786-0 renal
UACC-257 melanoma = test system: UACC-257 melanoma
OVCAR-3 ovarian = test system: OVCAR-3 ovarian
ACHN renal = test system: ACHN renal
SW-620 colon = test system: SW-620 colon
COLO 205 colon = test system: COLO 205 colon
DU-145 prostate = test system: DU-145 prostate
SF-268 CNS = test system: SF-268 CNS
SK-OV-3 ovarian = test system: SK-OV-3 ovarian
BT-549 breast = test system: BT-549 breast
T-47D breast = test system: T-47D breast
SF-295 CNS = test system: SF-295 CNS
MOLT-4 leukemia = test system: MOLT-4 leukemia
CAKI-1 renal = test system: CAKI-1 renal
TK-10 renal = test system: TK-10 renal
CCRF-CEM leukemia = test system: CCRF-CEM leukemia
RPMI-8226 leukemia = test system: RPMI-8226 leukemia
NCI-H23 lung = test system: NCI-H23 lung
OVCAR-4 ovarian = test system: OVCAR-4 ovarian
NCI/ADR-RES ovarian = test system: NCI/ADR-RES ovarian
K-562 leukemia = test system: K-562 leukemia
HOP-92 NSCLC = test system: HOP-92 NSCLC
OVCAR-5 ovarian = test system: OVCAR-5 ovarian
OVCAR-8 ovarian = test system: OVCAR-8 ovarian
HS 578T breast = test system: HS 578T breast
MCF7 breast = test system: MCF7 breast
M14 melanoma = test system: M14 melanoma
SN12C renal = test system: SN12C renal
A498 renal = test system: A498 renal
MDA-MB-231 breast = test system: MDA-MB-231 breast
UO-31 renal = test system: UO-31 renal
KM12 colon = test system: KM12 colon
SNB-75 CNS = test system: SNB-75 CNS
UACC-62 melanoma = test system: UACC-62 melanoma
HCT-116 colon = test system: HCT-116 colon
NCI-H226 lung = test system: NCI-H226 lung
SNB-19 CNS = test system: SNB-19 CNS
U251 CNS = test system: U251 CNS
PC-3 prostate = test system: PC-3 prostate
SK-MEL-5 melanoma = test system: SK-MEL-5 melanoma
MDA-MB-435 = test system: MDA-MB-435
NCI-H522 lung = test system: NCI-H522 lung
HT29 colon = test system: HT29 colon

Measured: TGI

COC(=O)CCCC(=O)C1=Nc2ccccc2CN(c2ccc(Cl)cc2)N1
49.5 µM: T-47D breast
87.7 µM: OVCAR-4 ovarian
> 100 µM: all other assays above
